Measured values as given in patent publication US20260284051A1, “METHIONINE ADENOSYLTRANSFERASE 2A (MAT2A) INHIBITOR COMBINATIONS AND USES THEREOF” (INSILICO MEDICINE IP LIMITED, priority 2023, published 2026).

System: HCC15 MTAP null xenografts
Experiment: Efficacy study of HCC15 human lung cancer xenograft model in NOD SCID mice
Format: in vivo
Settings: for Tumor volume (mm^3) Final (mean): Mean ± SD
Procedure: Efficacy Study of HCC15 Human Lung Cancer Xenograft Model in NOD SCID Mice Methods:
The HCC15 cells were maintained in vitro as a monolayer culture in 90% 1640+10% FBS, 100U/ml penicillin and 100 μg/ml streptomycin at 37° C. in an atmosphere of 5% CO2 in air. The tumor cells were routinely subcultured at a ratio of 1:2 to 1:3 every 3-4 days. Alternatively, Cultures were maintained by addition or replacement of fresh medium. Started cultures at 5×10^5 cells/mL and maintained between 0.5×10^5 and 2×10^6 cells/ml.
NOD SCID mice, female, 6-8 weeks, weighing approximately 20-22 g.
Each mouse were inoculated subcutaneously at the right flank with HCC15 cells in a 0.2 mL mixture of 1640 for tumor development (5×10^6 cells/mouse). Dosing was started when the average tumor size reaches approximately 100-200 mm^3 for the tumor efficacy study with tool and med chem molecules to look for efficacy vs vehicle tumor growth.
Mean tumor volume at dosing start was approximately 133.09 mm^3, with ten mice randomized to each treatment group. In the HCC15 MTAP null tumor model, mice were dosed orally, once per day (QD) with Vehicle, once per day (QD) with Compound 1 at 3 mg/kg, once per day (QD) with AG270 at 100 mg/kg, mice were intravenous, per week with Docetaxel at 2.5 mg/kg, or Compound 1 combined with Docetaxel at each dose level.

## C#CCNc1nc(=O)n(-c2cccnc2C)c2cc(C(F)(F)F)cc(OC)c12 [Example 36, 5-methoxy-1-(2-methylpyridin-3-yl)-4-(prop-2-yn-1-ylamino)-7-(trifluoromethyl)quinazolin-2(1H)-one]
Compound 1 3 mg/kg orally QD
  Tumor volume (mm^3) Final (mean): 596 ± 63 mm^3
Compound 1 3 mg/kg orally QD, listed as Compound 1, 3 mg/kg
  TGI (%): 49.6%
Combination of Compound 1 3 mg/kg and Docetaxel 2.5 mg/kg
  effect on tumor growth (in words): significantly inhibited tumor growth
combination: Compound 1 3 mg/kg QD + Docetaxel 2.5 mg/kg per week
  Tumor volume (mm^3) Final (mean): 399 ± 42 mm^3
combination: Compound 1 3 mg/kg QD + Docetaxel 2.5 mg/kg per week, listed as Compound 1
  TGI (%): 71.2%
